In article PMC4941374, “Therapy of pancreatic cancer via an EphA2 receptor-targeted delivery of gemcitabine” (Oncotarget, 2016):
Entries after “also recorded” stand apart in the source; their conditions may differ.

Experiments:
pancreatic cancer = settings: 126 patients, 63 per group; ref [3]; cited from earlier work
Excerpt: In 1997, Burris, et al. published a clinical study comparing Gemcitabine to 5-Fluoruracil (5-FU) for the treatment of pancreatic cancer. In this study, 126 patients were enrolled with 63 per treatment group. […] The median survival was 5.65 months for Gemcitabine and 4.41 months for 5-FU. […] This trial encouraged the ...

[1] = test system: MIA PaCa-2-luc pancreatic cancer xenografts; experiment: MIA PaCa-2-luc subcutaneous xenograft, 123B9-L2-Gem study; type: in vivo, human tumor cells in athymic nude mice
Protocol: Similarly, in a separate experiment we compared the efficacy of equimolar doses of Gemcitabine and 123B9-L2-Gem (Figure 3C, 3D).
(§1) Isothermal Titration Calorimetry (ITC) measurements were obtained with Model ITC200 from Microcal/GE Life Sciences. For in vivo studies, all drugs were diluted in 10% Tween-80, 10% DMSO, and 80% PBS.
(§2) 5 × 10^6 MIA PaCa-2-luciferase cells were used to establish bilateral subcutaneous tumors on the flanks of 8–10 week old male athymic nude mice. Studies were done as previously described. Treatment began when tumors reached a palpable size (∼50–100 mm^3) with 9 mice per group. All drugs were administered by tail vein injection twice per week for 4 weeks, for a total of 8 injections. […] BLI measurements were performed at the beginning and end of the study. During imaging, mice were placed in the imaging chamber and maintained with 2% isoflurane gas anesthesia at a flow rate of approximately 0.5–1 L/min per mouse. Anesthetized mice were injected IP with 150 mg/kg body weight D-Luciferin (Xenogen Corporation, Alameda, CA). After approximately 10 min, mice were imaged using a charge-coupled-device (CCD) camera coupled to the Xenogen in vivo imaging (IVIS) imaging system (Caliper Life Sciences, Inc., Hopkinton, MA).
Tumors were measured twice per week using calipers. […]

[2] = target: T1, EphA2 ligand binding domain (EphA2-LBD) (Homo sapiens, UniProt P29317); experiment: Isothermal titration calorimetry (ITC), EphA2 LBD; settings: 50 mM phosphate buffer pH 6.5, 100 mM NaCl, as given in legend
T1 construct: made in house
Protocol: (§3) To further verify the binding affinity and selectivity of the resulting conjugates for the EphA2 ligand binding domain (LBD), we expressed and purified EphA2 and […]. These proteins were dissolved to a final concentration of 100 μM in 50 mM phosphate buffer (pH = 6.5), containing 100 mM NaCl.
(§4) All linear peptides and peptide mimetics were assembled using standard Fmoc peptide synthesis protocol with the Rink amide resin on 433A Peptide Synthesizer (Applied Bio-Systems). In general, in each coupling reaction, approximately 10 equivalents of Fmoc-amino acid, 0.45 M solution of HOBt/HBTU (9 equiv) in DMF, 2 M solution of DIEA in NMP were used, for about 9 minutes. Fmoc de-protection was performed with 20% piperidine in DMF for 10 min. Each peptide was subsequently cleaved from the resin and all protecting groups removed by exposure to a 94% TFA, 2 % water, 2% tri-isopropylsilane, 2% phenol mixture for approximately 3 h. The TFA mixture was subsequently removed under reduced pressure and the peptides were precipitated in diethyl ether, centrifuged, and washed with diethyl ether prior to drying in high vacuum. The crude peptides were purified by preparative reverse phase HPLC. The final compounds were characterized by NMR and MALDI-Mass. […] EphA2-LBD and EphA3-LDB were expressed as reported recently. […]

[3] = test system: EphA3 ligand binding domain (EphA3-LBD); experiment: Isothermal titration calorimetry (ITC), EphA3 LBD; settings: 50 mM phosphate buffer pH 6.5, 100 mM NaCl, ~50% sequence identity with the EphA2 LBD
Protocol: as §3, §4

tumors expressing hENT1 = test system: tumors expressing hENT1; set-up: method as in PMID 16818496; settings: high versus lower hENT1 expression; ref [5]; cited from earlier work
Excerpt: (§5) Though there are multiple mechanisms of Gemcitabine resistance, one important mechanism revolves around expression of this protein. […] Patients with higher hENT1 expression have tumors that can more readily take ...

hENT1 = test system: hENT1; set-up: method as in PMID 22978251; settings: sodium-independent transporter; ref [4]; cited from earlier work
Excerpt: as §5

[4] = test system: metastatic pancreatic cancer; set-up: method as in PMID 24131140; settings: 861 patients, ref [36]; cited from earlier work
Excerpt: There is a vital need to develop novel therapies that provide greater clinical benefit to patients without undue toxicity. A Phase 3 clinical study in patients with metastatic pancreatic cancer evaluated nab-Paclitaxel (Abraxane) + Gemcitabine versus Gemcitabine alone in a total of 861 patients.

[5] = test system: MIA PaCa-2-luc pancreatic cancer xenografts; experiment: MIA PaCa-2-luc subcutaneous xenograft, YNH-L2-Gemcitabine study; type: in vivo, human tumor cells in athymic nude mice; settings: for effect on tumor growth: 10 mg/kg Gemcitabine or equimolar conjugate, tail vein, twice per week for 4 weeks, 9 mice/group, caliper tumor volume and BLI; for survival time: Kaplan-Meier, days, mice sacrificed when moribund, Supplementary Figure S2 top
Protocol: MIA PaCa-2-luc cells were used to create bilateral subcutaneous xenografts in athymic nude mice. […] Cells were injected into each flank and then allowed to grow for approximately 1 week. At this point, mice were imaged using BLI and treatment was subsequently initiated. Mice were divided into 4 groups (PBS, Gemcitabine, YDH-L2-Gemcitabine, YNH-L2-Gemcitabine) with 9 mice/group. YDH-L2-Gemcitabine is a scrambled control, where the peptide attached to Gemcitabine should not be specific for EphA2 and, therefore, should not bind to the receptor. Animals were treated 2 times per week via tail vein injection for 4 weeks. A dose of 10 mg/kg Gemcitabine was used along with equimolar doses of YDH-L2-Gemcitabine and YNH-L2-Gemcitabine. At the end of 4 weeks, animals were again imaged and treatment was ended.
as §1, §2
Tumors were measured twice per week using calipers. For in vivo studies, data shown are the mean + SEM and for statistical comparisons we used the two-way Anova analyses (GraphPad). After their last injection, mice were kept for 1 additional week to monitor tumor growth and imaged at the end of that week. The mice were then kept to monitor for the effects of treatment on survival. Mice were kept until reaching a moribund status and they were then sacrificed at that time.

T1 sequence (P29317 28-206 limits assumed): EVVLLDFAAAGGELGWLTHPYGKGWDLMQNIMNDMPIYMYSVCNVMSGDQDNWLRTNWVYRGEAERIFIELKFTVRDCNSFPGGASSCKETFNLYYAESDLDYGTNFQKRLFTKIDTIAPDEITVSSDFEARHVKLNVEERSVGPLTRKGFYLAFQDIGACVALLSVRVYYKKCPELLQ

Row | Compound | median survival (pancreatic cancer) | patients alive at 12-month time point (pancreatic cancer) | patients with clinical benefit (pancreatic cancer) | binding to EphA3 LBD (in words) [3] | effect on tumor growth [5] | survival time [5] | also measured
1 | O=c1[nH]cc(F)c(=O)[nH]1 [5-FU, 5-Fluoruracil] | 4.41 months | 2% | 4.8% |  |  |  | 
2 | CCCC[C@H](NC(=O)[C@@H]1CCCN1C(=O)[C@@H](NC(=O)[C@H](CO)NC(=O)[C@H](CC(=O)O)NC(=O)[C@@H]1CCCN1C(=O)[C@H](Cc1ccc(O)cc1)NC(=O)[C@H](C)NC(=O)[C@H](CO)NC(=O)COc1ccc(F)c(Cl)c1)C(C)C)C(=O)N[C@@H](CCO)C(=O)N[C@@H](CO)C(=O)N[C@@H](CCCCNC(=O)CCCc1cn(CCCCCC(=O)O[C@@H]2[C@@H](CO)O[C@@H](n3ccc(N)nc3=O)C2(F)F)nn1)C(N)=O [123B9-L2-Gem] |  |  |  | No appreciable binding was detected |  |  | survival time ([1]; Kaplan-Meier, days, mice sacrificed when moribund, Supplementary Figure S2 bottom): significantly longer than both untreated and Gemcitabine treated groups; also recorded: significant increase in survival time; also recorded: prolong survival; effect on tumor growth ([1]; equimolar doses, equivalent of 10 mg/Kg Gemcitabine, tail vein, twice per week for 4 weeks, caliper tumor volume and BLI, 10 mg/kg): significantly more effective than gemcitabine alone in suppressing tumor growth; also recorded: significant efficacy was observed; ΔH, binding to EphA2 LBD [2]: -11 kcal/mol
3 | Nc1ccn([C@@H]2O[C@H](CO)[C@@H](O)C2(F)F)c(=O)n1 [Gemcitabine] | 5.65 months | 18% | 23.8% |  | had a modest effect on tumor growth; also recorded: did not exhibit significant efficacy compared to mice treated with vehicle only as control | significant increase in the median survival time compared to untreated mice | survival advantage with high tumor hENT1 expression (tumors expressing hENT1): greater survival advantage with Gemcitabine treatment as compared to those with lower hENT1 expression; transport by hENT1 (hENT1): preferentially transport Gemcitabine; median survival [4]: 6.7 months; response rate [4]: 7%; survival rate at 1 year [4]: 22%; survival rate at 2 years [4]: 4%
4 | CCCC[C@H](NC(=O)[C@@H]1CCCN1C(=O)[C@@H](NC(=O)[C@H](CO)NC(=O)[C@H](CC(=O)O)NC(=O)[C@@H]1CCCN1C(=O)[C@H](Cc1ccc(O)cc1)NC(=O)[C@H](C)NC(=O)[C@H](CO)NC(=O)[C@@H](N)Cc1ccc(O)cc1)C(C)C)C(=O)N[C@@H](CCO)C(=O)N[C@@H](CO)C(=O)N[C@@H](CCCCNC(=O)CCCc1cn(CCCCCC(=O)O[C@@H]2[C@@H](CO)O[C@@H](n3ccc(N)nc3=O)C2(F)F)nn1)C(N)=O [YNH-L2-Gem] |  |  |  | No appreciable binding was detected | significant efficacy was observed | prolong survival | effect on tumor growth ([5]; listed as YNH-L2-Gemcitabine): showed the greatest inhibition of tumor growth of all groups evaluated; also recorded: inhibits tumor growth in vivo to a greater extent as compared to Gemcitabine; survival time ([5]; listed as YNH-L2-Gemcitabine): significant increase in the median survival time compared to untreated mice
